# In patent publication US11939361B2, “Compositions of peptide inhibitors of Interleukin-23 receptor” (Janssen Pharmaceutica NV, priority 2020, dated 2024):
# Experiments:
# [1] = Rat PK Study 1: intraduodenal/intracolonic dosing with absorption enhancers; type: in vivo, Sprague Dawley rats; conditions: for AUC(0-inf) / AUC(0-t) / Cmax / Tmax: male, Sprague Dawley, plasma, 10 mg/kg
# Protocol: In this Example, a screen of various absorption enhancers was assessed. […] The following absorption enhancers were tested: sodium caprate (NaCl0), sodium salcaprozate (SNAC), sucrose laureate, Peptelligence (proprietary technology from Enteris Pharma-undisclosed composition) and Labrasol. The solutions were dosed by intracolonic (IC) or intraduodenal (ID) injection to rats. […] NaCl0 gave the highest systemic exposure followed by Peptelligence, then Labrasol, then SNAC, and finally sucrose laureate. Accordingly, sodium caprate was determined to be a preferred absorption enhancer. […] Therefore, the systemic exposure is likely to be high enough to afford systemic activity.
# The following absorption enhancers were evaluated: sodium caprate (NaCl0, 100 mg/kg), SNAC (100 mg/kg), sucrose laurate (100 mg/kg), Enteris A (proprietary technology of Enteris Pharma) (60 mg/kg), and Labrasol (100 mg/kg).
# [2] = system: IL-23 induced IFNγ production; experiment: Ex vivo whole blood IL-23-induced IFNγ production assay, FIH MAD cohorts; type: in vivo
# Protocol: An ex vivo whole blood IL-23 induced IFNγ assay was used to evaluate the systemic pharmacodynamic activity of the orally administered peptide of SEQ ID NO: 1 in the first-in-human study. […] On Days 1 and 10, when the assay was performed, subjects received their dose of placebo or peptide of SEQ ID NO: 1 following an overnight fast of approximately 10 hours and remained fasted for approximately 4 hours following dosing. After oral dosing on days 1 and 10, whole blood from the subjects was stimulated ex vivo with either IL-2 (10 ng/mL) and IL-18 (20 ng/mL) or IL-2 (10 ng/mL), IL-18 (20 ng/mL), and IL-23 (0.5 ng/mL) in TruCulture™ tubes (Rules Based Medicine, Q^2 solutions company) for stimulation of IFNγ production. The production of IFNγ is expected to be suppressed if IL-23R signaling is inhibited. Therefore, lower IFNγ production in the assay is associated with sufficient exposure to achieve systemic pharmacodynamic (PD) activity of orally dosed peptide of SEQ ID NO: 1.
# Whole blood was collected in TruCulture™ tubes according to manufacturer instructions, the tubes were incubated at 37° C. in a block thermostat for 24 hours (±1 hour). Following incubation at 37° C., supernatants were harvested according to TruCultube™ tube manufacturer instructions (Rules Based Medicine, Q^2 solutions company). An ELISA assay was used to quantify the levels of IFNg in the supernatants.
# [3] = system: rat trinitrobenzenesulfonic acid (TNBS)-induced colitis model; experiment: Rat TNBS-induced colitis model, efficacy; type: in vivo, Sprague-Dawley rats
# Description: Intracolonic TNBS instillation in Sprague-Dawley rats induces colonic inflammation driven in part by IL-23/IL-23R signaling (Cheng X, Taranath R, Mattheakis L, Bhandari A, Liu D. The biomarker profile of PTG-200, an oral peptide antagonist of IL-23 receptor, tracks with efficacy in a preclinical model of IBD. J Crohns Colitis. AGA Abstracts, 2017). The TNBS rat model therefore provides a measure of the local GI effects of SEQ ID NO: 1 on IL-23/IL-23R signaling.
# The peptide of SEQ ID NO: 1 was evaluated in the rat TNBS model with oral dosing only, three times a day (0.03, 0.1, 0.3, 1, 3, 10, mg/kg/day), in three independent rat TNBS experiments. In all studies, the peptide of SEQ ID NO: 1 was dosed starting 2 days prior to TNBS induction through day 6, with euthanasia scheduled on day 7.
# Disease severity resulting from TNBS can be assessed by qualitative scoring of the formation of strictures, adhesions, ulceration, and increase in wall thickness as described previously. […] Based on this qualitative scoring, the peptide of SEQ ID NO: 1 at 0.1 mg/kg/day was considered to be the minimally efficacious dose for colonic score (FIG. 13).
# Data from 3 different studies were combined (represented by shapes of the symbols at each dose level: study 1 (Δ), study 2 (♦), study 3 (∘); box at interquartile range, bars at minima/maxima). The colons were scored on the following parameters: adhesion (0-2), stricture (0-3), ulcer (0-5), and wall thickness (0-2) for a total sum component score range of 0-12. The colon score was reduced by treatment with the peptide of SEQ ID NO: 1 at doses of […] (ns=not significant, * p<0.05, *** p<0.001, **** p<0.0001).
# [4] = other: intracolonic, IC dose 10 mg/kg, Enteris A 60 mg/kg
# [5] = other: intracolonic, IC dose 10 mg/kg, Labrasol 100 mg/kg
# [6] = other: intracolonic, IC dose 10 mg/kg, NaC10 100 mg/kg
# [7] = other: intracolonic, IC dose 10 mg/kg, SNAC 100 mg/kg
# [8] = other: intracolonic, IC dose 10 mg/kg, Sucrose laurate 100 mg/kg
# [9] = other: intracolonic, IC dose 10 mg/kg, no absorption enhancer
# [10] = other: intraduodenal, ID dose 10 mg/kg, Enteris A 60 mg/kg
# [11] = other: intraduodenal, ID dose 10 mg/kg, Labrasol 100 mg/kg
# [12] = other: intraduodenal, ID dose 10 mg/kg, NaC10 100 mg/kg
# [13] = other: intraduodenal, ID dose 10 mg/kg, SNAC 100 mg/kg
# [14] = other: intraduodenal, ID dose 10 mg/kg, Sucrose laurate 100 mg/kg
# [15] = other: intraduodenal, ID dose 10 mg/kg, no absorption enhancer
# [16] = human, 25 mg, 100 mg, 300 mg and 1000 mg cohorts, oral once a day
structure (smiles),measurement,setting,value
"CC(=O)NCCCC[C@@H]1NC(=O)[C@H](Cc2c[nH]c3c(C)cccc23)NC(=O)[C@H]([C@@H](C)O)NC(=O)[C@H](CC(N)=O)NC(=O)[C@@H](NC(C)=O)C(C)(C)SSC(C)(C)[C@@H](C(=O)N[C@@H](Cc2ccc(OCCN)cc2)C(=O)N[C@@H](Cc2ccc3ccccc3c2)C(=O)NC2(C(=O)N[C@@H](CCC(=O)O)C(=O)N[C@@H](CC(N)=O)C(=O)N[C@@H](Cc3cccnc3)C(=O)N(C)CC(N)=O)CCOCC2)NC1=O [SEQ ID NO: 1, Ac-[Pen]*—N-T-[W(7-Me)]-[Lys(Ac)]-[Pen]*-Phe[4-(2-aminoethoxy)]-[2-Nal]-[THP]-E-N-[3-Pal]-Sarc-NH2]",Fabs,"[1]; IC dose 10 mg/kg, Enteris A 60 mg/kg",2.98%
same,Fabs,"[1]; IC dose 10 mg/kg, Labrasol 100 mg/kg",5.82%
same,Fabs,"[1]; IC dose 10 mg/kg, NaC10 100 mg/kg",6.36%
same,Fabs,"[1]; IC dose 10 mg/kg, SNAC 100 mg/kg",1.64%
same,Fabs,"[1]; IC dose 10 mg/kg, Sucrose laurate 100 mg/kg",0.939%
same,Fabs,"[1]; IC dose 10 mg/kg, no absorption enhancer",0.0531%
same,Fabs,"[1]; ID dose 10 mg/kg, Enteris A 60 mg/kg",5.06%
same,Fabs,"[1]; ID dose 10 mg/kg, Labrasol 100 mg/kg",3.26%
same,Fabs,"[1]; ID dose 10 mg/kg, NaC10 100 mg/kg",6.24%
same,Fabs,"[1]; ID dose 10 mg/kg, SNAC 100 mg/kg",1.13%
same,Fabs,"[1]; ID dose 10 mg/kg, Sucrose laurate 100 mg/kg",0.764%
same,Fabs,"[1]; ID dose 10 mg/kg, no absorption enhancer",0.360%
same,AUC(0-inf),[1]; [4],567 ng·h/mL
same,AUC(0-t),[1]; [4],561 ng·h/mL
same,Cmax,[1]; [4],626 ng/mL
same,Tmax,[1]; [4],15 min
same,AUC(0-inf),[1]; [5],1110 ng·h/mL
same,AUC(0-t),[1]; [5],1100 ng·h/mL
same,Cmax,[1]; [5],976 ng/mL
same,Tmax,[1]; [5],15 min
same,AUC(0-inf),[1]; [6],1210 ng·h/mL
same,AUC(0-t),[1]; [6],1210 ng·h/mL
same,Cmax,[1]; [6],1030 ng/mL
same,Tmax,[1]; [6],20 min
same,AUC(0-inf),[1]; [7],312 ng·h/mL
same,AUC(0-t),[1]; [7],309 ng·h/mL
same,Cmax,[1]; [7],309 ng/mL
same,Tmax,[1]; [7],20 min
same,AUC(0-inf),[1]; [8],179 ng·h/mL
same,AUC(0-t),[1]; [8],176 ng·h/mL
same,Cmax,[1]; [8],191 ng/mL
same,Tmax,[1]; [8],15 min
same,Cmax,[1]; [9],4.99 ng/mL
same,Tmax,[1]; [9],35 min
same,AUC(0-inf),[1]; [10],964 ng·h/mL
same,AUC(0-t),[1]; [10],958 ng·h/mL
same,Cmax,[1]; [10],988 ng/mL
same,Tmax,[1]; [10],15 min
same,AUC(0-inf),[1]; [11],621 ng·h/mL
same,AUC(0-t),[1]; [11],617 ng·h/mL
same,Cmax,[1]; [11],625 ng/mL
same,Tmax,[1]; [11],15 min
same,AUC(0-inf),[1]; [12],1190 ng·h/mL
same,AUC(0-t),[1]; [12],1190 ng·h/mL
same,Cmax,[1]; [12],1220 ng/mL
same,Tmax,[1]; [12],15 min
same,AUC(0-inf),[1]; [13],215 ng·h/mL
same,AUC(0-t),[1]; [13],210 ng·h/mL
same,Cmax,[1]; [13],209 ng/mL
same,Tmax,[1]; [13],15 min
same,AUC(0-inf),[1]; [14],145 ng·h/mL
same,AUC(0-t),[1]; [14],141 ng·h/mL
same,Cmax,[1]; [14],107 ng/mL
same,Tmax,[1]; [14],15 min
same,AUC(0-inf),[1]; [15],68.6 ng·h/mL
same,Cmax,[1]; [15],23.1 ng/mL
same,Tmax,[1]; [15],40 min
same,AUC(0-t),"[1]; other: intraduodenal, ID dose 10 mg/kg, no absorption enhancer, last time point 2, 4, 6, 8, or 24 hours",62 ng·h/mL
same,inhibition of IL-23 stimulated IFNγ production in human whole blood,"[2]; 10-1000 mg oral once a day, Day 1 and Day 10",dose dependent inhibition
same,maximum inhibition of IL-23 induced IFNγ production (mean systemic PD activity),[2]; [16],~100%
same,time for which >50% inhibition of IFNγ production was maintained,[2]; [16],≥ 8 h
same,TNBS-induced weight loss,"[3]; 0.03, 0.1, 0.3, 1, 3, and 10 mg/kg/day, all 3 studies",prevented and reversed
same,"minimally efficacious dose, body weight",[3]; day 7 as the study endpoint,0.3 mg/kg/day
same,"minimal efficacious dose, TNBS-induced colitis model (summary)","[3]; rat, in vivo",0.3 mg/kg/day
same,"minimally efficacious dose, colonic score","[3]; rat, in vivo",0.1 mg/kg/day
